PubChem BioAssay AID1996
≈ marks a conversion by molar mass, not a printed value.

Conditions: buffer; pH 7.4; 200.0 µM

| Structure (SMILES) | solubility kinetic |
| --- | --- |
| Cn1cnnc1SCC(=O)Nc1ccccc1Oc1ccccc1 | > 51.1 µg/mL |
| CN(C)C(=O)CN1CCN(Cc2nc(CC3CC3)no2)CC1 | > 46.1 µg/mL |
| CCOC(=O)NC(C(Cl)(Cl)Cl)S(=O)(=O)c1ccccc1 (stereo not drawn) | > 54.1 µg/mL |
| CCOC(=O)c1cc(C#N)c(=S)[nH]c1C | 33.1 µg/mL (≈ 149 µM) |
| CCC(C)NC(=O)c1cc2c(=O)n(CC)c3ccccc3c2s1 (stereo not drawn) | 2.3 µg/mL (≈ 7 µM) |
| O=C(O)c1cccc(S(=O)(=O)N2CCN(c3ccccn3)CC2)c1 | > 52.1 µg/mL |
| N#C/C(=C\c1ccc2c(c1)OCO2)C(=O)NCc1ccco1 | 0.6 µg/mL (≈ 2.03 µM) |
| COc1cccc(C(=S)N2CCOCC2)c1OS(=O)(=O)c1ccc(Cl)cc1 | 3.3 µg/mL (≈ 7.71 µM) |
| CC1(C2CC2)NC(=O)N(CC(=O)Nc2ccccc2C#N)C1=O (stereo not drawn) | > 46.8 µg/mL |
| CCn1c(C)c(C(=O)O)c2cc(OC)c3ccccc3c21 | 16.8 µg/mL (≈ 59.3 µM) |
| CCCOc1ccccc1Cn1c(=O)oc2ccccc21 | 3.9 µg/mL (≈ 13.8 µM) |
| Cc1c(Cl)cnc(NC(=O)COC(=O)C2CC2)c1Cl | > 45.5 µg/mL |
| O=C(COC(=O)c1c(F)cccc1Cl)NC1CCCC1 | > 45 µg/mL |
| CC(C(=O)Nc1ccc(OCc2ccccc2)cc1)N1CCCC1 (stereo not drawn) | > 48.7 µg/mL |
| Cc1ccc(-n2c(=O)[nH]c3c(oc4ccccc43)c2=O)cc1 | 38.8 µg/mL (≈ 133 µM) |
| CC(=O)c1cccc(Nc2nc(-c3cccnc3)cs2)c1 | 0.9 µg/mL (≈ 3.05 µM) |
| CN1CCN(c2nc(-c3ccccc3)ncc2S(C)(=O)=O)CC1 | > 49.9 µg/mL |
| Cc1ccc(C)c2nc(Cl)c(C#N)cc12 | < 0.2 µg/mL |
| CC(C)n1c(=S)[nH]c2cc(C(F)(F)F)ccc21 | 9.1 µg/mL (≈ 35 µM) |
| CC(C)[C@H](NC(N)=O)C(=O)NCCc1ccc(Cl)cc1 | > 44.7 µg/mL |
| CC1(C)C(=O)Nc2ccccc2N1C(=O)COc1ccc(C#N)cc1 | 38.1 µg/mL (≈ 114 µM) |
| O=C(O)CCC(=O)Nc1ccc(Br)cc1C(=O)c1ccccc1Cl | > 61.6 µg/mL |
| COc1ccc(CNC(=O)C2CCN(S(C)(=O)=O)CC2)cc1 | 45.2 µg/mL (≈ 138 µM) |
| Nc1ncc(CCN2CCOCC2)c(-c2ccc(F)cc2)n1 | > 45.4 µg/mL |

| Structure (SMILES) | solubility kinetic |
| --- | --- |
| CN(Cc1ccccc1)C(=O)COC(=O)CCC(=O)c1ccc(F)cc1 | 14.8 µg/mL (≈ 41.4 µM) |
| COc1ccc(NC(=S)NC(=O)/C=C/c2ccc(F)cc2)cc1 | < 0.4 µg/mL |
| Cc1cccc(C)c1OC(=O)CN1C(=O)c2ccccc2C1=O | 0.9 µg/mL (≈ 2.91 µM) |
| Nc1sc2c(c1C(=O)NCCc1ccccc1)CCC2 | 17 µg/mL (≈ 59.4 µM) |
| COc1ccc(CCNC(=O)COC(=O)c2cncc(Br)c2)cc1OC | > 63.5 µg/mL |
| O=C(O)/C=C/c1ccc(Oc2ncccn2)cc1 | > 36.3 µg/mL |
| CN(C)/C=C1\C(=O)N(c2ccc(F)cc2F)C(c2cccnc2)S1(=O)=O (stereo not drawn) | > 56.9 µg/mL |
| CC(CN1C(C)CCCC1C)OC(=O)c1cccc(F)c1.Cl (stereo not drawn) | > 49.5 µg/mL |
| COc1ccc(C(=O)Nc2ccc(NC(=O)C(C)C)nc2)cc1 | 3.1 µg/mL (≈ 9.89 µM) |
| CC(=O)Nc1ccc(C(=O)NC2CCSc3ccccc32)cc1 (stereo not drawn) | 16.6 µg/mL (≈ 50.9 µM) |
| COc1ccccc1NS(=O)(=O)c1ccc(C(=O)NCc2ccc(S(N)(=O)=O)cc2)cc1 | 20.3 µg/mL (≈ 42.7 µM) |
| O=C(O)/C=C/c1ccc(S(=O)(=O)Nc2ccc3[nH]c(=O)[nH]c3c2)cc1 | > 53.9 µg/mL |
| O=C(CSC(=O)c1ccccc1)Nc1ccccc1F | 9.8 µg/mL (≈ 33.9 µM) |
| CC(C)COC(=O)N1C[C@H](O)C[C@H]1C(=O)Nc1ccc(Cl)cc1 | > 51.1 µg/mL |
| O=C(CN1C(=O)C(=O)N(C2CCCC2)C1=O)NCCc1ccc(F)cc1 | > 54.2 µg/mL |
| O=C1CC(=O)N(c2cccc(F)c2)C(=O)N1 | > 33.3 µg/mL |
| CC1(C)CC2(CCO1)C(Nc1ccccc1)=NC(=S)N2CC(N)=O (stereo not drawn) | > 52 µg/mL |
| Nc1nc(Nc2ccccc2)nc(N2CCCC2)c1[N+](=O)[O-] | 27.6 µg/mL (≈ 91.9 µM) |
| Cc1ccccc1NC(=O)Cn1c(=O)oc2ccccc21 | 14.4 µg/mL (≈ 51 µM) |
| CCOc1ccccc1NC(=S)N1CCCCCC1 | > 41.8 µg/mL |
| COc1ccc(C=O)cc1CSc1ccccn1 | 38.2 µg/mL (≈ 147 µM) |
| CC1=C/C(=C\C=C(C#N)C#N)N(C)c2ccccc21 | 0.8 µg/mL (≈ 3.23 µM) |
| Cc1ccc(C)c(S(=O)(=O)NCC(=O)N2CCCC2)c1 | 41.4 µg/mL (≈ 140 µM) |
| CC(Sc1nc2ncc(Cl)cc2[nH]1)C(=O)Nc1ccc(C(N)=O)cc1 (stereo not drawn) | 9.3 µg/mL (≈ 24.7 µM) |

| Structure (SMILES) | solubility kinetic |
| --- | --- |
| CSc1ncc(C(=O)Nc2ccc(Br)cn2)c(C)n1 | 47 µg/mL (≈ 139 µM) |
| O=C(/C=C/c1ccccc1)N1CCOCC1 | > 32.6 µg/mL |
| CC(C)NC(=O)COCc1cc(-c2ccc3c(c2)OCO3)on1 | > 47.7 µg/mL |
| COc1ccccc1CCNC1CCCCCC1 | > 37.1 µg/mL |
| CSCCC1NC(=O)N(CC(=O)Nc2cccc(S(=O)(=O)N3CCCCCC3)c2)C1=O (stereo not drawn) | 52.3 µg/mL (≈ 112 µM) |
| CC(=O)c1cccc(NC(=O)CN2C(=O)NC(C)(C)C2=O)c1 | > 45.5 µg/mL |
| O=C(NCC1CCCO1)C1CC(=O)N(c2ccc(Cl)cc2)C1 (stereo not drawn) | > 48.4 µg/mL |
| CC(=O)Nc1cccc(NC(=S)Nc2cccc(Cl)c2C)c1 | 44.9 µg/mL (≈ 134 µM) |
| O=C(O)c1ccc(S(=O)(=O)N2CCOCC2)o1 | 33.9 µg/mL (≈ 130 µM) |
| O=C(O)c1cccc(S(=O)(=O)Nc2ccc(Cc3ccncc3)cc2)c1 | > 55.3 µg/mL |
| CN(C)C(=O)C(OC(=O)c1ccc2ccccc2n1)c1ccccc1 (stereo not drawn) | > 50.2 µg/mL |
| CCN(c1ccccc1)c1cc2ccccc2c(=O)[nH]1 | 23.9 µg/mL (≈ 90.4 µM) |
| Cc1ccc(SC(C)C(=O)O/N=C(\N)c2ccncc2)cc1 (stereo not drawn) | > 47.3 µg/mL |
| Cc1nc2c(C(F)(F)F)cccc2c2c1CCS2 | < 0.6 µg/mL |
| CCC(=O)N1CCN=C1SCc1cccc(F)c1 | > 39.9 µg/mL |
| CN1CCCC(OC(=O)c2cccc(Cl)c2)C1.Cl (stereo not drawn) | > 43.5 µg/mL |
| COc1ccc(OC)c(CN2CCN(C(=O)CNC(=O)c3ccccc3F)CC2)c1 | 59.9 µg/mL (≈ 144 µM) |
| O=C(c1ccc(Cl)cc1Cl)N1CCc2ccccc21 | 13.9 µg/mL (≈ 47.6 µM) |
| Cc1ccc(C)n1-c1ccc(-c2ccnc(N)n2)cc1 | 22.5 µg/mL (≈ 85.1 µM) |
| Cn1ccsc1=NC(=O)c1ccc(Cl)c([N+](=O)[O-])c1 | 0.5 µg/mL (≈ 1.68 µM) |
| CC(=O)O/N=C/c1c(NCc2ccccc2)nc2c(C)cccn2c1=O | 25.7 µg/mL (≈ 73.3 µM) |
| Cc1ccc(S(=O)(=O)N2CCCCC2)cc1NC(=O)COC(=O)c1cccn1C | 9 µg/mL (≈ 21.5 µM) |
| CCN(C(=O)COc1ccc2ccc(=O)oc2c1)C1CCCCC1 | > 49.4 µg/mL |
| CCOc1ccccc1NC(=O)NC(=O)N(C)S(C)(=O)=O | 18 µg/mL (≈ 57.1 µM) |

| Structure (SMILES) | solubility kinetic |
| --- | --- |
| Fc1ccc(Oc2nc(-c3ccccn3)nc3ccccc23)cc1 | 17.3 µg/mL (≈ 54.5 µM) |
| O=S(=O)(c1ccc(Cl)cc1)N1CCc2ccccc21 | 6.1 µg/mL (≈ 20.8 µM) |
| O=C(NC(=S)Nc1ccc(Br)cc1)C1CCC1 | 2.6 µg/mL (≈ 8.3 µM) |
| Cc1cccn2c(=O)c(C=O)c(N3CC(C)OC(C)C3)nc12 (stereo not drawn) | > 45.2 µg/mL |
| Cc1csc(NC(=O)Cc2ccc(F)cc2)n1 | > 37.5 µg/mL |
| Cc1cc(C)cc(NC(=O)CN2CCC(C(=O)c3ccccc3)CC2)c1 | 16.5 µg/mL (≈ 47.1 µM) |
| O=C(O)C1CCN(C(=O)c2cc(F)cc3c2OCOC3)CC1 | > 46.4 µg/mL |
| COC(=O)C(NC(=O)C(C)NC(=O)OCc1ccccc1)C(C)C (stereo not drawn) | > 50.5 µg/mL |
| O=C(CNC(=O)c1ccccc1)NCc1nc2ccccc2[nH]1 | 39.4 µg/mL (≈ 128 µM) |
| COc1ccc([N+](=O)[O-])cc1NC(=O)c1csc(C)c1 | < 0.3 µg/mL |
| c1ccc(NCc2ccccn2)cc1 | 24.6 µg/mL (≈ 134 µM) |
| NC(=O)C1CCN(C(=O)/C(=C/c2ccccc2)NC(=O)c2ccccc2)CC1 | 53.7 µg/mL (≈ 142 µM) |
| N#C/C(=C\c1ccc[nH]1)C(=O)Nc1ccccc1Cl | < 0.2 µg/mL |
| Cl.O=C(CN1CCOCC1)NCc1ccc(F)cc1 | > 43.3 µg/mL |
| N#Cc1ccc(OCC(O)CS(=O)(=O)c2ccc(F)cc2)cc1 (stereo not drawn) | > 50.3 µg/mL |
| Cc1cccc(C)c1NC(=S)N(CCN(C)C)Cc1cccs1 | 45.8 µg/mL (≈ 132 µM) |
| CC(=O)c1ccc(N=C2SCCCN2C(=O)C2CCCCC2)cc1 | 42.2 µg/mL (≈ 123 µM) |
| COc1cc(-n2c(C)nc3cc(C(=O)O)ccc32)cc(OC)c1OC | > 51.4 µg/mL |
| Cc1nc2ccccc2c(=O)n1-c1ccc(Br)cn1 | > 47.4 µg/mL |
| Br.Cn1ccnc1SCC(=O)c1ccc(O)cc1 | > 49.4 µg/mL |
| CC1CC(C)CN(c2ncnc3c2cnn3C)C1 (stereo not drawn) | > 36.8 µg/mL |
| Cc1ccc([N+](=O)[O-])c(OCCn2cnc3ccccc32)c1 | 11.6 µg/mL (≈ 39 µM) |
| O=C(CCNS(=O)(=O)c1ccccc1)N1CCOCC1 | > 44.8 µg/mL |
| FC(F)(F)c1cccc(NC(=S)Nc2ccc(Cl)c(Cl)c2)c1 | 1.5 µg/mL (≈ 4.11 µM) |

| Structure (SMILES) | solubility kinetic |
| --- | --- |
| Cn1c(=O)c(=O)n(C)c2cc([N+](=O)[O-])c([N+](=O)[O-])cc21 | > 42 µg/mL |
| Cc1ccc(Cl)c(NC(=O)CSc2cccc[n+]2[O-])c1Cl | > 51.5 µg/mL |
| O=C(CCn1c(=S)oc2ccccc21)Nc1cccc(O)c1 | 8.6 µg/mL (≈ 27.4 µM) |
| O=C(NCC1CCCCC1)c1ccccc1[N+](=O)[O-] | > 39.3 µg/mL |
| COc1ccc(CNC(=O)c2ccc(Br)cc2)cc1 | 4.1 µg/mL (≈ 12.8 µM) |
| Cc1csc(NC(=O)Cc2ccccc2Cl)n1 | 34.4 µg/mL (≈ 129 µM) |
| CC1(C)CC(=O)N(c2cccc(C(F)(F)F)c2)C(=O)C1 | 8.1 µg/mL (≈ 28.4 µM) |
| OCCCNc1ncnc2scc(-c3ccc(Cl)cc3)c12 | > 48 µg/mL |
| COc1cccc(C(=O)NCCNC(=O)c2ccc(C)nc2)c1 | 45.7 µg/mL (≈ 146 µM) |
| Cc1csc(NC(=O)c2cc[n+]([O-])cc2)n1 | > 35.3 µg/mL |
| O=S(=O)(Nc1cccc(S(=O)(=O)N2CCCCCC2)c1)c1ccc(F)cc1F | > 64.6 µg/mL |
| COc1ccc(S(=O)(=O)NCCNC(=O)N2CCOCC2)cc1 | > 51.5 µg/mL |
| CC(=O)Nc1ccc(NC(=O)CC2CCCC2)cc1 | > 39.1 µg/mL |
| CSCCC(NC(=O)COc1ccccc1)C(=O)O (stereo not drawn) | 31.7 µg/mL (≈ 112 µM) |
| O=C1CSc2ccc(C(=O)NCc3ccccn3)cc2N1 | > 44.9 µg/mL |
| O=C(O)CNS(=O)(=O)c1ccc2c3c(cccc13)C(=O)N2 | > 45.9 µg/mL |
| Cc1cc(C)cc(NC(=O)C2CCN(S(C)(=O)=O)CC2)c1 | 38.8 µg/mL (≈ 125 µM) |
| CC(C)CCN1C(=O)C2(OCCCO2)c2cc(Cl)ccc21 | 3 µg/mL (≈ 9.68 µM) |
| O=C(CN1CCN(c2ccccc2)CC1)NCc1ccc(F)cc1 | > 49.1 µg/mL |
| Cc1ccc(NS(=O)(=O)c2ccc3[nH]c(=O)c(=O)[nH]c3c2)cc1Cl | 11.5 µg/mL (≈ 31.4 µM) |
| COc1ccc(CNCCC2(C(C)C)CCOC(C)(C)C2)cc1 (stereo not drawn) | > 47.9 µg/mL |
| COc1ccc(CNC(=O)C2CCN(S(C)(=O)=O)CC2)c(OC)c1 | > 53.5 µg/mL |
